# According to patent US20190359609A1, “BICYCLIC OGA INHIBITOR COMPOUNDS” (Janssen Pharmaceutica NV, priority 2016, published 2019):
# Read-outs that look alike come from different tables or passages of the source.
# Assays:
# [1] = molecular target: T1, recombinant human Meningioma Expressed Antigen 5 (MGEA5), also referred to as O-GlcNAcase (OGA) (Homo sapiens, UniProt O60502); experiment: OGA biochemical assay: inhibition of FM-GlcNAc hydrolysis, fluorescence (protocol A 10 nM OGA, 1 h; protocol B 2 nM OGA, 6 h); conditions: for IC50: read-out: Enzymatic hOGA, pIC50 (converted); for Emax: read-out: Enzymatic Emax (%)
# T1 construct: Full length OGA enzyme was purchased at OriGene (cat # TP322411); purchased OriGene TP322411
# T1 sequence (O60502 1-916): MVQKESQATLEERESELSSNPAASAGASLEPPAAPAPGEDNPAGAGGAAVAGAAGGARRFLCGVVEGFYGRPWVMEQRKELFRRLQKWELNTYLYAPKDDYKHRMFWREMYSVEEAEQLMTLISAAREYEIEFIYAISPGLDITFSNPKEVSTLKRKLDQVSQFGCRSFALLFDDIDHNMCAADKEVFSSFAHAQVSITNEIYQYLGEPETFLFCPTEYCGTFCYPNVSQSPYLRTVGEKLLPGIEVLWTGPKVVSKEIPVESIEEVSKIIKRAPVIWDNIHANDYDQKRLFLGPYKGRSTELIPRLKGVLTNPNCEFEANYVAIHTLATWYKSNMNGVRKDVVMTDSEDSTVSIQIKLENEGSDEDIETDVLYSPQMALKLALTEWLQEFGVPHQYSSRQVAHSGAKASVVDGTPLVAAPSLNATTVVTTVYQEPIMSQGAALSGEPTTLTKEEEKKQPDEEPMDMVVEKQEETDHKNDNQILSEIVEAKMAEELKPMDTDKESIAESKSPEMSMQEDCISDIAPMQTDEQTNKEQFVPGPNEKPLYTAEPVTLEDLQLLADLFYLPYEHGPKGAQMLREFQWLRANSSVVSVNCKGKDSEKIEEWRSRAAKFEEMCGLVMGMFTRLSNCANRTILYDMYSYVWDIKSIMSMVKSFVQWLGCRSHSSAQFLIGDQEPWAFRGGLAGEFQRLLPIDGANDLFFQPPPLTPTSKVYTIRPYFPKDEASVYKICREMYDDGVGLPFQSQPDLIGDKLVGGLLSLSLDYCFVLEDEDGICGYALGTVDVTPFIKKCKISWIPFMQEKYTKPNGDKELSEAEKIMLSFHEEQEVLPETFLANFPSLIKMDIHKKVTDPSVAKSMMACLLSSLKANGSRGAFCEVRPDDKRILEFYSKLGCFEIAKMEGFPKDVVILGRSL
# From the text: The assay is based on the inhibition of the hydrolysis of fluorescein mono-B-D-N-Acetyl-Glucosamine (FM-GlcNAc) (Mariappa et al. 2015, Biochem J 470:255) by the recombinant human Meningioma Expressed Antigen 5 (MGEA5), also referred to as 0-GlcNAcase (OGA). The hydrolysis FM-GlcNAc (Marker Gene technologies, cat # M1485) results in the formation of β-D-N-glucosamineacetate and fluorescein. The fluorescence of the latter can be measured at excitation wavelength 485 nm and emission wavelength 538 nm. An increase in enzyme activity results in an increase in fluorescence signal. Full length OGA enzyme was purchased at OriGene (cat # TP322411). The enzyme was stored in 25 mM Tris.HCl, pH 7.3, 100 mM glycine, 10% glycerol at −20° C. Thiamet G and GlcNAcStatin were tested as reference compounds (Yuzwa et al. 2008 Nature Chemical Biology 4:483; Yuzwa et al. 2012 Nature Chemical Biology 8:393). The assay was performed in 200 mM Citrate/phosphate buffer supplemented with 0.005% Tween-20. 35.6 g Na2HPO4 2 H2O (Sigma, # C0759) were dissolved in 1 L water to obtain a 200 mM solution. 19.2 g citric acid (Merck, #1.06580) was dissolved in 1 L water to obtain a 100 mM solution. pH of the sodiumphosphate solution was adjusted with the citric acid solution to 7.2. The buffer to stop the reaction consists of a 500 mM Carbonate buffer, pH 11.0. 734 mg FM-GlcNAc were dissolved in 5.48 mL DMSO to obtain a 250 mM solution and was stored at −20° C. OGA was used at a 10 nM (protocol A) or 2 nM (protocol B) concentration and FM-GlcNAc at a 100 uM final concentration. Dilutions were prepared in assay buffer.
# 50 nl of a compound dissolved in DMSO was dispensed on Black Proxiplate™ 384 Plus Assay plates (Perkin Elmer, #6008269) and 3 μl fl-OGA enzyme mix added subsequently. Plates were pre-incubated for 60 min at room temperature and then 2 μl FM-GlcNAc substrate mix added. […] Plates were briefly centrifuged for 1 min at 1000 rpm and incubate at room temperature for 1 h (10 nM OGA, protocol A) or 6 h (2 nM OGA, protocol B). To stop the reaction 5 μl STOP buffer were added and plates centrifuge again 1 min at 1000 rpm. Fluorescence was quantified in the Thermo Scientific Fluoroskan Ascent or the PerkinElmer EnVision with excitation wavelength 485 nm and emission wavelength 538 nm.
# For analysis a best-fit curve is fitted by a minimum sum of squares method. From this an IC50 value and Hill coefficient was obtained. High control (no inhibitor) and low control (saturating concentrations of standard inhibitor) were used to define the minimum and maximum values.
# OGA = molecular target: T2, OGA (Homo sapiens, UniProt O60502); experiment: OGA cellular assay: ICC detection of O-GlcNAcylated proteins in HEK293 cells inducible for P301L mutant human Tau; assay type: cell-based; conditions: 6 hours incubation; for EC50: read-out: Cellular hOGA, pEC50 (converted)
# T2 construct: endogenous in cells; host or cells: HEK293 cells inducible for P301L mutant human Tau (2N4R)
# T2 sequence (O60502 1-916): T1 sequence (O60502 1-916)
# Procedure: HEK293 cells inducible for P301L mutant human Tau (isoform 2N4R) were established at Janssen. Thiamet-G was used for both plate validation (high control) and as reference compound (reference EC50 assay validation). OGA inhibition is evaluated through the immunocytochemical (ICC) detection of O-GlcNAcylated proteins by the use of a monoclonal antibody (CTD110.6; Cell Signaling, #9875) detecting O-GlcNAcylated residues as previously described (Dorfmueller et al. 2010 Chemistry & biology, 17:1250).
# Inhibition of OGA will result in an increase of 0-GlcNAcylated protein levels resulting in an increased signal in the experiment. Cell nuclei are stained with Hoechst to give a cell culture quality control and a rough estimate of immediate compounds toxicity, if any. ICC pictures are imaged with a Perkin Elmer Opera Phenix plate microscope and quantified with the provided software Perkin Elmer Harmony 4.1.
# Cells were propagated in DMEM high Glucose (Sigma, #D5796) following standard procedures. 2 days before the cell assay cells are split, counted and seeded in Poly-D-Lysine (PDL) coated 96-wells (Greiner, #655946) plate at a cell density of 12,000 cells per cm^2 (4,000 cells per well) in 100 μl of Assay Medium (Low Glucose medium is used to reduce basal levels of GlcNAcylation) (Park et al. 2014 The Journal of biological chemistry 289:13519). At the day of compound test medium from assay plates was removed and replenished with 90 μl of fresh Assay Medium. 10 μl of compounds at a 10fold final concentration were added to the wells. Plates were centrifuged shortly before incubation in the cell incubator for 6 hours. DMSO concentration was set to 0.2%. Medium is discarded by applying vacuum. For staining of cells medium was removed and cells washed once with 100 μl D-PBS (Sigma, #D8537). From next step onwards unless other stated assay volume was always 50 μl and incubation was performed without agitation and at room temperature. Cells were fixed in 50 μl of a 4% paraformaldehyde (PFA, Alpha aesar, #043368) PBS solution for 15 minutes at room temperature. […] Before analysis samples were washed 2 times manually for 5 minutes in ICC base buffer.
# Imaging is performed using Perkin Elmer Phenix Opera using a water 20× objective and recording 9 fields per well. Intensity readout at 488 nm is used as a measure of O-GlcNAcylation level of total proteins in wells. To assess potential toxicity of compounds nuclei were counted using the Hoechst staining. IC50-values are calculated using parametric non-linear regression model fitting. As a maximum inhibition Thiamet G at a 200 uM concentration is present on each plate. In addition, a concentration response of Thiamet G is calculated on each plate.
# PDE2 = PDE2 (Homo sapiens, UniProt O00408); experiment: PDE2 inhibitory activity (protocol as described in WO2017/076900, page 28); assay type: biochemical; conditions: screening concentration of 10 μM; read-out: PDE2 inhibitory activity, % effect
# [2] = Enzymatic protocol A (10 nM OGA, 1 h)
# [3] = Enzymatic protocol B (2 nM OGA, 6 h)
# Chain of PDE2 (O00408 whole entry): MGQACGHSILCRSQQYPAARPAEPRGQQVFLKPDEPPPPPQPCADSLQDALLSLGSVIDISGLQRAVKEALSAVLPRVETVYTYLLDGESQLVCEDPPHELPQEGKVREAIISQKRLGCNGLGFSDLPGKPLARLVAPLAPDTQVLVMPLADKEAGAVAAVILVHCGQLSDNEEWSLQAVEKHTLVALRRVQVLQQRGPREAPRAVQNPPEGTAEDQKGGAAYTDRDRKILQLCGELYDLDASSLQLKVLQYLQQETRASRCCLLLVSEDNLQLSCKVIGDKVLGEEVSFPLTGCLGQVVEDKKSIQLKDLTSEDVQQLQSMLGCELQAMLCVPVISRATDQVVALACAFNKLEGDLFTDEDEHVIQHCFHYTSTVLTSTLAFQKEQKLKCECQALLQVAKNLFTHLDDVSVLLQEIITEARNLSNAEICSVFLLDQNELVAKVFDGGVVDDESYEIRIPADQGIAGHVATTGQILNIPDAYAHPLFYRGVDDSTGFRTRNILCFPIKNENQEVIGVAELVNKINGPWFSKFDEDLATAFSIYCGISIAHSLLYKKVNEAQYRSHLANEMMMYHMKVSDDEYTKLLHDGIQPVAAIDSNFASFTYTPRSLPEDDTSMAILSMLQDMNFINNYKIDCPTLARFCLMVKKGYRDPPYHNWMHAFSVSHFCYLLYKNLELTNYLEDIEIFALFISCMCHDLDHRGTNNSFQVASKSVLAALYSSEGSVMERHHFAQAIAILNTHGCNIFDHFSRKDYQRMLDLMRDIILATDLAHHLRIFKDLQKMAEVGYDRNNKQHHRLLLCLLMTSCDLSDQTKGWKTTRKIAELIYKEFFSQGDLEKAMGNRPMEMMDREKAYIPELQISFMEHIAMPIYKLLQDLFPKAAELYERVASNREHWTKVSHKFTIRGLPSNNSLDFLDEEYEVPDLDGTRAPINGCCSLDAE
structure (smiles),measurement,setting,value
"CC(=O)Nc1ncc(CN2CCCC(c3nc4ncccc4[nH]3)C2)s1 (single isomer, unassigned) [Compound 19]",Enzymatic Emax (%),[1]; [2],102%
same,IC50,[1]; [2],148 nM
same,Emax,OGA,109%
same,EC50,OGA,851 nM
same,melting point,,228.2 °C
CC(=O)Nc1ncc(S(=O)(=O)N2CCCC(c3cc4ncccc4[nH]3)C2)s1 (stereo not shown) [Compound 2],Emax,[1]; [2],102%
same,IC50,[1]; [2],263 nM
same,inhibition at 10 µM,PDE2,33.1%
O=C(CN1CCCC(c2cc3ncccc3[nH]2)C1)N1CCCC1 (stereo not shown) [Compound 49],Emax,[1]; [3],80.5%
same,IC50,[1]; [3],2630 nM
same,Emax,OGA,7.2%
same,EC50,OGA,> 10000 nM
same,melting point,,179.9 °C
CC(=O)Nc1ncc(CN2CC[C@H](Cc3cc4ncccc4n3C)C2)s1 [Compound 59],Emax,[1]; [3],99.7%
same,IC50,[1]; [3],1.17 nM
same,melting point,,190.09 °C
CC(=O)Nc1ncc(CN2CCC(Cc3cc4cccnc4n3C)C2)s1 (stereo not shown) [Compound 60],Emax,[1]; [3],99.2%
same,IC50,[1]; [3],9.33 nM
same,melting point,,153.79 °C
CC(=O)Nc1ncc(CN2CCC(Cc3cc4cnccc4n3C)C2)s1 (stereo not shown) [Compound 61],Emax,[1]; [3],100%
same,IC50,[1]; [3],1.51 nM
same,melting point,,195.06 °C
